Assay results published in PubChem BioAssay (NCI).
Values joined by “and” are separate entries in the source; they are usually repeats but may differ in a detail not shown here. Equal values may be shown once.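 Five compound concentrations were applied to cells in 96-well plates for 48 hours; endpoints were derived by simple linear interpolation of the resulting dose-response curve. GI50 is the concentration that inhibits growth by half. TGI: total growth inhibition.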

Key:
Experiment in all cases: DTP human tumour cell line panel, 48 h
[1] = system: HL-60(TB) leukemia
[2] = system: NCI-H522 lung
[3] = system: RPMI-8226 leukemia
[4] = system: DU-145 prostate
[5] = system: MDA-N
[6] = system: NCI-H226 lung
[7] = system: PC-3 prostate
[8] = system: T-47D breast
[9] = system: HCC-2998 colon
[10] = system: DMS 273 small cell lung

Row | Compound | TGI [1] | TGI [2] | TGI [3] | TGI [4] | TGI [5] | TGI [6] | TGI [7] | TGI [8] | TGI [9] | TGI [10] | GI50 [4] | GI50 [9] | GI50 [1] | GI50 [6] | GI50 [7] | GI50 [8] | GI50 [2] | GI50 [3] | GI50 [10] | GI50 [5]
1 | COC1CCC(OS(C)(=O)=O)CO1 (stereo not drawn) | > 100 µM | > 100 µM | 98.2 µM | – | – | – | – | – | – | – | – | – | – | – | – | – | – | – | – | –
2 | CCCCC1Cc2cc(OC)ccc2-c2nc3cc(OC)ccc3n21 (stereo not drawn) (tested in a mixture with another compound) | 34.9 µM | 21.1 µM | 24.4 µM | 30 µM | 27 µM | 28.1 µM | 24.7 µM | 53.8 µM | – | – | – | – | – | – | – | – | – | – | – | –
3 | N=C(N)C(N=Nc1ccccc1)C(=N)N (stereo not drawn) | 54.2 µM | > 100 µM | > 100 µM | > 100 µM | 61.2 µM | 73.8 µM | > 100 µM | > 100 µM | 32.9 µM | – | – | – | – | – | – | – | – | – | – | –
4 | O=C1OC(c2ccccc2)=N/C1=C/c1cccs1 | 44.5 µM | – | 44.9 µM | – | – | > 100 µM | > 100 µM | – | > 100 µM | – | – | – | – | – | – | – | – | – | – | –
5 | O=c1c2c([nH]c3nccn13)CCCC2 | > 10 µM | > 10 µM | > 10 µM | > 10 µM | – | > 10 µM | > 10 µM | > 10 µM | > 10 µM | – | – | – | – | – | – | – | – | – | – | –
6 | C[N+]1(C)C2CCC1CC(OC(=O)C(CO)c1ccccc1)C2 (stereo not drawn) | – | > 100 µM | > 100 µM | > 100 µM | > 100 µM | > 100 µM | > 100 µM | > 100 µM | – | – | – | – | – | – | – | – | – | – | – | –
7 | CCN(CC)/C(=C\Cl)Nc1ccccn1 | > 100 µM | > 100 µM | > 100 µM | – | – | > 100 µM | – | – | > 100 µM | > 100 µM | – | – | – | – | – | – | – | – | – | –
8 | O=C1CCC(NC(=O)Cc2ccc(O)cc2)C(=O)N1 (stereo not drawn) | – | > 2500 µM | – | – | – | > 2500 µM | – | – | – | > 2500 µM | – | – | – | – | – | – | – | – | – | –
9 | CN1CCN(CCCOc2ccc3ncnc(Nc4ccc(Oc5cccc(C(F)(F)F)c5)c(Cl)c4)c3c2)CC1 | 4.52 µM | – | – | 3.49 µM | – | 52 µM | 3.91 µM | 4.02 µM | 3.16 µM | – | 1.66 µM | 1.55 µM | 1.89 µM | 21 µM | 1.71 µM | 1.39 µM | – | – | – | –
10 | O=C1CC(N2C(=O)/C(=C/C(Cl)=C\c3ccc([N+](=O)[O-])cc3)SC2=S)C(=O)N1c1ccc(Cl)cc1 (stereo not drawn) | 8.86 µM | 4.36 µM | 0.979 µM | – | – | 4.65 µM | 4.15 µM | 6.34 µM | 3.03 µM | – | – | 1.59 µM | 1.45 µM | 1.92 µM | 1.34 µM | 2.03 µM | 1.73 µM | 0.303 µM | – | –
11 | COc1nc(C#CCCCC#N)nc(OC)n1 | 71.6 µM | 29.4 µM | – | 23.3 µM | 56.1 µM | – | 30.9 µM | > 100 µM | – | – | – | – | – | – | – | – | – | – | – | –
12 | Cc1c(N)nc([C@H](CC(N)=O)NC[C@H](N)C(N)=O)nc1C(=O)N[C@H](C(=O)N[C@H](C)[C@@H](O)[C@H](C)C(=O)N[C@H](C(=O)NCCc1nc(-c2nc(C(=O)NCCC[S+](C)C)cs2)cs1)[C@@H](C)O)C(OC1OC(CO)C(O)C(O)C1OC1OC(CO)C(O)C(OC(N)=O)C1O)c1cnc[nH]1 (stereo partly drawn) | – | – | – | 20.2 µM and 5.4 µM and 30 µM | 24.4 µM and 25 µM and > 100 µM | – | 25 µM and > 100 µM | 24.8 µM and 14.8 µM and 45.9 µM | – | 7.82 µM and 29 µM | – | – | – | – | 2.63 µM and 5.22 µM | 5.28 µM and 1.03 µM and 5.77 µM | – | – | 0.0709 µM | 8.86 µM and 23.8 µM
13 | O=C(NN1C(=O)/C(=C/c2ccc(Cl)cc2)N=C1c1ccccc1)c1c(Cl)c(Cl)c(Cl)c(Cl)c1-c1nc2ccccc2[nH]1 | 50.5 µM | 83.4 µM | – | 61.9 µM | 31.5 µM | 68.2 µM | > 100 µM | 9.72 µM | 31.8 µM | – | – | – | – | – | – | – | – | – | – | –
14 | CN(C)CCNc1c([N+](=O)[O-])cc2c3c(cccc13)C(=O)N(CCN(C)C)C2=O | 5.53 µM | 2.79 µM | 11.6 µM | – | – | > 100 µM | – | – | 2.72 µM | 2.95 µM | – | – | – | – | – | – | – | – | – | –
15 | CN1CCC23c4ccccc4NC1C21CCN(C)C3Nc2ccccc21 | 109 µM | > 375 µM | > 182 µM | – | – | > 209 µM | – | – | > 375 µM | > 375 µM | – | – | – | – | – | – | – | – | – | –
16 | Cc1nc(Cl)c(C)c(Cl)n1 | > 68.4 µM | – | > 100 µM | > 100 µM | > 100 µM | > 100 µM | > 100 µM | > 100 µM | > 100 µM | – | – | – | – | – | – | – | – | – | – | –
17 | COC1(OC)C[C@H](C)[C@@]23O[C@]24c2cc(O)c5c(c2N[C@H]3C#C/C=C\C#C[C@]14O)C(=O)c1ccccc1C5=O | 0.00105 µM | 0.0664 µM and 0.0606 µM | 0.0604 µM and 0.0392 µM | 0.00686 µM and 0.048 µM | 0.139 µM and 0.108 µM | 0.00755 µM | 0.182 µM | 0.0774 µM and 0.455 µM | 0.0855 µM and 0.0544 µM | – | 0.00164 µM | 0.0197 µM | < 0.001 µM | – | 0.163 µM | 0.0104 µM | 0.0088 µM | 0.0015 µM | – | 0.00836 µM
18 | COc1ccc(OC)c2sc(N3C(=O)/C(=C/c4ccccc4S)N=C3c3ccccc3)nc12 | 79.3 µM | – | 58.4 µM | > 100 µM | 49.5 µM | – | 56.5 µM | > 100 µM | > 100 µM | – | – | – | – | – | – | – | – | – | – | –
19 | O=C1CC(n2cccc2)c2cc(Br)sc21 (stereo not drawn) | > 100 µM | 75.5 µM | 69.9 µM | > 100 µM | > 100 µM | > 100 µM | > 100 µM | > 100 µM | – | – | – | – | – | – | – | – | – | – | – | –
20 | N#CCc1[nH]nc2nc(SCc3ccccc3)nc(N3CCCCC3)c12 | 43.6 µM | 37.9 µM | 43.2 µM | 33.6 µM | – | – | 34 µM | 39.1 µM | 31.9 µM | – | – | – | – | – | – | – | – | – | – | –
21 | O=C1CS(=O)(=O)C(c2cccc(Oc3ccccc3)c2)N1c1cccc(Cl)c1Cl (stereo not drawn) | 82.9 µM | 39.4 µM | – | > 100 µM | 49.7 µM | > 100 µM | 89.9 µM | > 100 µM | – | – | – | – | – | – | – | – | – | – | – | –
22 | OC1C=C2C3CN(Cc4cc5c(cc43)OCO5)[C@H]2C[C@@H]1O (stereo partly drawn) | 19.3 µM | > 100 µM | > 100 µM | 71.2 µM | 37.3 µM | > 100 µM | 22.6 µM | 6.54 µM | – | – | – | – | – | – | – | – | – | – | – | –
23 | Cc1c2c(cc3c1[nH]c1ccccc13)C(c1ccc(F)cc1)=NCC2 | 1.57 µM | 3.85 µM | 2.54 µM | – | – | 4.64 µM | – | – | 2.8 µM | 2.29 µM | – | – | – | – | – | – | – | – | – | –
24 | OC(c1ccc(-c2ccccc2)cc1)(c1ccc(-c2ccccc2)cc1)c1ccc(-c2ccccc2)cc1 | – | > 100 µM | > 100 µM | > 100 µM | > 100 µM | – | > 100 µM | > 100 µM | – | – | – | – | – | – | – | – | – | – | – | –
25 | CO[C@@]12C[C@@H](CNC(=O)c3cc(Br)c[nH]3)O[C@@H]1NC(=O)N2 | – | > 100 µM | > 100 µM | > 100 µM | – | > 100 µM | > 100 µM | > 100 µM | – | – | – | – | – | – | – | – | – | – | – | –
26 | CCC(C)C(NC(=O)C(CCCCN)NC(=O)C(NC(=O)C(CCC(N)=O)NC(=O)C(CCCNC(=N)N)NC(C)=O)C(C)CC)C(=O)NC(Cc1c[nH]c2ccccc12)C(=O)NC(Cc1ccccc1)C(=O)NC(CCC(N)=O)C(=O)NC(CC(N)=O)C(=O)NC(CCCNC(=N)N)C(=O)NC(CCCNC(=N)N)C(=O)NC(CCSC)C(=O)NC(CCCCN)C(=O)NC(Cc1c[nH]c2ccccc12)C(=O)NC(CCCCN)C(=O)NC(CCCCN)C(N)=O (stereo not drawn) | > 50 µM | > 50 µM | > 50 µM | > 50 µM | > 50 µM | – | > 50 µM | > 50 µM | > 50 µM | – | – | – | – | – | – | – | – | – | – | –
27 | O=C(O)C(Cc1ccccc1)N1C(=O)c2ccccc2C1=O (stereo not drawn) | 10.8 µM | > 100 µM | > 100 µM | > 100 µM | > 100 µM | > 100 µM | > 100 µM | > 100 µM | > 100 µM | – | – | – | – | – | – | – | – | – | – | –
28 | CC(=O)C1(c2ccccc2)CCCN(C)CC1 (stereo not drawn) | – | – | > 100 µM | > 100 µM | – | > 100 µM | > 100 µM | > 100 µM | > 100 µM | – | – | – | – | – | – | – | – | – | – | –
